Data: publication PMC11557314 (Frontiers in Pharmacology, 2024)
Read-outs that look alike come from different tables or passages of the source. Where no end group is shown, it is not given here. [ ]: non-standard residue; d: D form. βAla = NCCC(=O)O

Experiments:
hDOPr [1] = target: T1, hDOPr (Homo sapiens, UniProt P41143); experiment: Competitive radio binding assay with [3H]-diprenorphine on hDOPr-CHO cell membranes
hKOPr [2] = target: T2, hKOPr (Homo sapiens, UniProt P41145); experiment: biochemical; settings: for EC50: read-out: Potency at hKOPr EC50
T2 sequence (P41145 whole entry): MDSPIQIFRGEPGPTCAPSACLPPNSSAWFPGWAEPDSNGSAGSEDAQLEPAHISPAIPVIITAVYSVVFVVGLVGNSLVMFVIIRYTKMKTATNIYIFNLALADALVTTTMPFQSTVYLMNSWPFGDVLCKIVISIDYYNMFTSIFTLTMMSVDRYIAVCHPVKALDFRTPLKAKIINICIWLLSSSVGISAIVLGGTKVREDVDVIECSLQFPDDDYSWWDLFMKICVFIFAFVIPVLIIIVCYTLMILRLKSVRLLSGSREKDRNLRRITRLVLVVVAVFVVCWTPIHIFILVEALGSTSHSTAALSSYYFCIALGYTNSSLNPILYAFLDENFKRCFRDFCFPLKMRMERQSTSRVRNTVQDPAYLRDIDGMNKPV

hDOPr [3] = target: T1, hDOPr; experiment: [35S]GTPγS functional assay on hDOPr-CHO cell membranes; format: biochemical
Method: CHO cells stably transfected with human KOPr, MOPr, and DOPr (hKOPr-CHO, hMOPr-CHO, and hDOPr-CHO, respectively) were provided by Prof. Liu-Chen (Temple University, Philadelphia, United States). The cells were grown in Gibco™ Dulbecco’s minimal essential medium (DMEM) for hKOPr-CHO or Gibco™ DMEM/F-12 for hMOPr and hDOPr. Both media were supplemented with 10% FBS (Gibco™), GlutaMAX (100 μg/mL; Gibco™), penicillin/streptomycin (100 μg/mL; Gibco™), and geneticin (G418, 400 μg/mL; Gibco™). HEK 293 cells were grown in high-glucose DMEM supplemented with 10% FBS (Gibco™), GlutaMAX (100 μg/mL; Gibco™), and penicillin/streptomycin (100 μg/mL; Gibco™). Cell cultures were maintained in a Heracell™ 150i CO2 incubator at 37°C and 5.0% CO2.
Functional assays were conducted on hKOPr-CHO, hMOPr-CHO, and hDOPr-CHO cell membranes (see above). The membranes were prepared in a buffer containing 20 mM HEPES, 10 μM GDP, cell membrane (10–30 μg), and 0.05 nM [^35S]GTPγS. The buffer containing the cell membranes was incubated with an increasing concentration of the test peptide diluted in 1 × HEPES, pH 7.4, in a total volume of 1 mL, for 60 min at 25°C. The peptide solutions were replaced by diluents for untreated controls. Non-specific binding was determined using unlabeled 10 μM GTPγS. Samples were rapidly washed three times with Tris-HCl and filtered through glass fiber filters (GF/B Whatman). The bound radioactivity was measured by liquid scintillation (Carl Roth GmbH, Karlsruhe, Germany) counting on a Packard 1600 TR Tri-Carb Beta counter (Canberra, Belgium).

hKOPr [4] = target: T2, hKOPr; experiment: cell-based; format: cell-based; settings: HEK293, read-out: β-Arrestin recruitment, efficacy at hKOPr Emax
hKOPr [5] = experiment: Biased factor calculation from GTPγS and PRESTO-Tango data; design: species or system human; settings: G-protein vs β-arrestin, DynA as reference; below 1 = β-arrestin bias
Source text: To perform biased factor analyses, we followed the step-by-step protocol described by [Nagi and Pineyro (2016)]. In short, curve fitting was used to calculate τ and Ka values for G-protein and β-arrestin pathway activation. Log(τ/Ka) ratios were subtracted by log(τ/Ka) of DynA as the reference to yield ΔLog(τ/Ka) values for each peptide. In a final step for each peptide, ΔLog (τ/Ka) values for G-protein pathway activation were subtracted from ΔLog(τ/Ka) values for β-arrestin pathway activation and vice versa to calculate ΔΔLog(τ/Ka). The biased factor is yielded by delogging ΔΔLog (τ/Ka).
To confidently identify a G-protein-biased peptide of interest, it is essential to keep in mind that the responses we collected through GTPγS and PRESTO-Tango assay are not solely determined by drug signaling properties but also by the way the cell and different assays “perceive” the generation of this response. These different “perceptions” of the pharmacological stimulus may themselves be responsible for an imbalance among signals from different pathways. To avoid this, and to be able to correctly estimate whether a peptide is indeed biased, we applied the method proposed by [Kenakin et al. (2012)], that is based on the operational method proposed by [Black and Leff (1983)]. This method takes into consideration receptor occupation by the agonist, communication of the pharmacological stimulus to the system, and the processing of the stimulus by the system that produces the response.

hKOPr [6] = target: T2, hKOPr; format: binding; settings: for Ki: read-out: Ki hKOPr
hMOPr = hMOPr (Homo sapiens, UniProt P35372); experiment: Competitive radio binding assay with [3H]-DAMGO on hMOPr-CHO cell membranes; settings: read-out: Ki hMOPr; [3H]-DAMGO 1 nM, 60 min 25°C; mean ± SEM
hMOPr, sequence (P35372 whole entry): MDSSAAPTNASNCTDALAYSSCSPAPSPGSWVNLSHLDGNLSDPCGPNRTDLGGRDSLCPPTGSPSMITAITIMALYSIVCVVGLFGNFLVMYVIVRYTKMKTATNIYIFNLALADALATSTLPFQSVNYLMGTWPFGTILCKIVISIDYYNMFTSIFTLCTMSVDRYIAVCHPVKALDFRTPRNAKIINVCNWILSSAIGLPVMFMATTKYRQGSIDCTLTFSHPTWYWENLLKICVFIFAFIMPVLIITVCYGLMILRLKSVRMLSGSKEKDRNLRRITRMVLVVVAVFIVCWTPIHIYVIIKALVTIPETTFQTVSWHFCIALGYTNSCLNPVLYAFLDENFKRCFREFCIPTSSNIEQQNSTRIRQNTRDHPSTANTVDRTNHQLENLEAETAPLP

hKOPr [7] = system: hKOPr; design: method as in Bedini et al., 2020; settings: result in words; ref Bedini et al., 2020; cited from earlier work
[8] = read-out: Efficacy at hKOPr Emax
[9] = read-out: Ki hDOPr, [3H]-diprenorphine 1 nM, 60 min 25°C, mean ± SEM

T1 sequence (P41143 whole entry): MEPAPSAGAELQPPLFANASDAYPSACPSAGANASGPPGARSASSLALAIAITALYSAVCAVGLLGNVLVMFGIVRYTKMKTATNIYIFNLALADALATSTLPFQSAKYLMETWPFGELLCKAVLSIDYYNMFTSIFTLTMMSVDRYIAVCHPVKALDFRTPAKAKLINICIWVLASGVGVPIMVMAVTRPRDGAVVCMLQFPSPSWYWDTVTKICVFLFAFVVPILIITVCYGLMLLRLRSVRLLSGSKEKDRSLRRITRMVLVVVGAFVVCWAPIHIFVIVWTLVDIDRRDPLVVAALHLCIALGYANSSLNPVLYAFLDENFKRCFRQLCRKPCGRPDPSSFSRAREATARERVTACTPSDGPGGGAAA

Molecule	Emax (hKOPr [2]; [8]) [%]	Selectivity DOPr/KOPr (hKOPr [6])	Ki (hKOPr [6]) [nM]	Ki (hMOPr) [nM]	Ki (hDOPr [1]; [9]) [nM]	EC50 (hKOPr [2]) [nM]	Selectivity MOPr/KOPr (hKOPr [6])	agonist category at hKOPr (GTPγS) (hKOPr [2])	other results
CC(C)C[C@H](NC(=O)[C@H](Cc1ccccc1)NC(=O)CNC(=O)CNC(=O)[C@@H](N)Cc1ccc(O)cc1)C(=O)N[C@@H](CCCNC(=N)N)C(=O)N[C@@H](CCCNC(=N)N)C(=O)N[C@@H](CCC(N)=O)C(=O)N[C@@H](Cc1ccccc1)C(=O)N[C@@H](CCCCN)C(=O)N[C@H](C(=O)N[C@H](C(=O)N[C@H](C(=O)O)[C@@H](C)O)C(C)C)C(C)C [DynB_WT, dynorphin B, reference compound]	120 ± 1.5								Ki (hDOPr [1]): 80.2 ± 6.4 nM; hKOPr % stim, stimulation of [35S]GTPγS binding (hKOPr [2]): 120 ± 1.5%; preference for hKOPr over hDOPr (GTPγS) (hKOPr [2]): 12 fold; preference for hKOPr over hMOPr (GTPγS) (hKOPr [2]): 6 fold; Emax (hKOPr [2]; read-out: Emax higher than DynA): 20%; EC50 (hDOPr [3]): 59.3 ± 6.7 nM; hDOPr % stim, stimulation of [35S]GTPγS binding (hDOPr [3]; Table 3, normalized to DynA, mean ± SEM): 104 ± 3.6%; Emax (hKOPr [4]): 111 ± 5.3%; biased factor at hKOPr (hKOPr [5]): 0.8 ± 0.2
FGGFLRRQFKVVT [DynB_Y1F]	110 ± 5.5	44	37.3	217 ± 13.5	1620	393 ± 47.3			potency for hKOPr as compared to DynB (GTPγS) (hKOPr [2]): strongly reduced potency
YGAFLRRHFKVVT [DynB_G3A/Q8H]	74.9 ± 1.6	1,508	0.3	41.9 ± 1.3	460 ± 44.2	6.77 ± 0.82	137	partial agonists	
YGAFLRRQFAVVT [DynB_G3A/K10 A]	84 ± 3.6	317	1.57	90.4 ± 7.6	497 ± 105	16.7 ± 2.45	58		
YGAFLRRQFKVVT [DynB_G3A]	83.4 ± 5.5	149	2.13	82.3 ± 7.9	317 ± 34.1	27.9 ± 8.72	39		
YGAFSRRQFKVVT [DynB_G3A/L5S]	92.5 ± 5.7	2,195	1.73	98.3 ± 5.9	3790	116 ± 11.2	57		decrease of potency compared to DynB_WT (hKOPr [2]): more than 20 fold; potency for hKOPr as compared to DynB (GTPγS) (hKOPr [2]): strongly reduced potency
YGGFLRRAFKVVT [DynB_Q8A]	125 ± 12.3								
YGGFLRRHFKVVT [DynB_Q8H]	111.5 ± 0.9	507	0.21	7.7 ± 1.4	106 ± 17.1	2.25 ± 0.47	36		
YGGFLRRQFAVVT [DynB_K10 A]	132 ± 3.9								
YGMFLRRHFKVVT [DynB_G3M/Q8H]	42.1 ± 1.3	459	0.36	97.1 ± 15.8	167 ± 19	5.43 ± 0.53	268	partial agonists	
YGMFLRRQFKVVT [DynB_G3M]	54.5 ± 1.8	141	0.61	117 ± 6.9	85.3 ± 16.4	14.1 ± 4.17	193	partial agonists	
YGMFSRRQFKVVT [DynB_G3M/L5S]	52.6 ± 1.6	1,115	7.24	290 ± 17.9	8080	170 ± 23.7	40	partial agonists	potency for hKOPr as compared to DynB (GTPγS) (hKOPr [2]): strongly reduced potency
cyclo(FG[βAla][dW]) [LOR17]									G-protein bias at the hKOPr (hKOPr [7]): strong G-protein bias
